Molecular target: T1, α-amylase from porcine pancreas (Sus scrofa, UniProt P00690)
T1 sequence (P00690 16-511): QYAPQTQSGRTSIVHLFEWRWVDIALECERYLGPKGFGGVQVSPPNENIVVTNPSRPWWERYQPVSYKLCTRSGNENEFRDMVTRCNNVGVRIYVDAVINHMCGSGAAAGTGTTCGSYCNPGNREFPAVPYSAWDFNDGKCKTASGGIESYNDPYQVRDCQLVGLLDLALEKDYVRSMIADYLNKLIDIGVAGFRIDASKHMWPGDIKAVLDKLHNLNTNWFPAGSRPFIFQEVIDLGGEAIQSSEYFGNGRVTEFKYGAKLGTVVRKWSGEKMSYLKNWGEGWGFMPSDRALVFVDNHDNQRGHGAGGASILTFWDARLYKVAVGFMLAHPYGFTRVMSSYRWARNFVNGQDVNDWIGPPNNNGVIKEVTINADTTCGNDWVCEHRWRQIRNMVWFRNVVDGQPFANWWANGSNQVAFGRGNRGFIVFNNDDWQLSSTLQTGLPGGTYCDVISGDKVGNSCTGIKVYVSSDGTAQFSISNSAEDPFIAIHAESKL
Assay: biochemical

For `O=C(O)CC(O)(CC(=O)O)C(=O)O` [citric acid], the IC50 was 640 ± 40 µM.
